Source: patent publication US20210094954A1, “PREPARATION METHODS AND APPLICATIONS OF 3,5-DISUBSTITUTED METHYLPYRAZOLO[1,5-A]PYRIMIDINE-7-HYDROXYLIC SALTS” (priority 2019, published 2021)
Read-outs that look alike come from different tables or passages of the source.

What was measured:
[1] = test system: Streptococcus pneumoniae 6303 (PRSP); assay: microbe, parasite or virus in culture; format: cell-based; conditions: Streptococcus pneumoniae, PRSP, 24 h, read-out: MIC values of in vitro antibacterial test results
[2] = test system: Streptococcus pneumoniae 10351; assay: microbe, parasite or virus in culture; format: cell-based; conditions: Streptococcus pneumoniae, 10351; 37° C., 24 hours; read-out: MIC values of in vitro antibacterial test results
Peel fungus = assay: organism not typed; format: cell-based; conditions: 37° C., 24 hours; read-out: MIC values of in vitro antibacterial test results
[3] = test system: Streptococcus agalactia B group; assay: microbe, parasite or virus in culture; format: cell-based; conditions: Streptococcus; 37° C., 24 hours; read-out: MIC values of in vitro antibacterial test results
[4] = test system: Staphylococcus aureus 703(MRSA); assay: microbe, parasite or virus in culture; format: cell-based; conditions: Staphylococcus aureus, MRSA, 24 h, read-out: MIC values of in vitro antibacterial test results
Bacillus subtilis 168 = assay: microbe, parasite or virus in culture; format: cell-based; conditions: Bacillus subtilis, 168; 37° C., 24 hours; read-out: MIC values of in vitro antibacterial test results
Clostridium perfringens = assay: microbe, parasite or virus in culture; format: cell-based; conditions: Clostridium perfringens, 24 h, read-out: MIC values of in vitro antibacterial test results
[5] = test system: Enterococcus faecalis 29212; assay: microbe, parasite or virus in culture; format: cell-based; conditions: Enterococcus faecalis, 29212; 37° C., 24 hours; read-out: MIC values of in vitro antibacterial test results
[6] = test system: Enterococcus faecalis F2518(VRE); assay: microbe, parasite or virus in culture; format: cell-based; conditions: Enterococcus faecalis, VRE, 24 h, read-out: MIC values of in vitro antibacterial test results
Bacillus cereus 2 = assay: microbe, parasite or virus in culture; format: cell-based; conditions: Bacillus cereus, 2; 37° C., 24 hours; read-out: MIC values of in vitro antibacterial test results
[7] = test system: Streptococcus pneumoniae M2; assay: microbe, parasite or virus in culture; format: cell-based; conditions: Streptococcus pneumoniae, M2; 37° C., 24 hours; read-out: MIC values of in vitro antibacterial test results
[8] = test system: F2518(VRE), Staphylococcus aureus resistant strain 43300(MRSA), 703 (MRSA), pneumococcal resistance bacteria 6303(PRSP); assay: microbe, parasite or virus in culture; format: cell-based; conditions: read-out: MIC values (μM)
[9] = test system: Staphylococcus aureus 29231; assay: microbe, parasite or virus in culture; format: cell-based; conditions: Staphylococcus aureus, 29231; 37° C., 24 hours; read-out: MIC values of in vitro antibacterial test results
[10] = test system: Staphylococcus aureus 43300 (MRSA); assay: antibacterial study in vivo, survival of infected kunming mice; conditions: 30 days of observation
[11] = test system: Staphylococcus aureus 43300(MRSA); assay: microbe, parasite or virus in culture; format: cell-based; conditions: Staphylococcus aureus, MRSA, 24 h, read-out: MIC values of in vitro antibacterial test results
Diphtheria bacilli = assay: organism not typed; format: cell-based; conditions: 37° C., 24 hours; read-out: MIC values of in vitro antibacterial test results
Oral Candida = assay: microbe, parasite or virus in culture; format: cell-based; conditions: Candida
[12] = test system: Bacillus anthracis Bacillus 1; assay: microbe, parasite or virus in culture; format: cell-based; conditions: Bacillus anthracis, 24 h, read-out: MIC values of in vitro antibacterial test results
[13] = 37° C., 24 hours, read-out: MIC values of in vitro antibacterial test results

Structure (SMILES) | MIC [1] | MIC [2] | MIC (Peel fungus) | MIC [3] | MIC [4] | MIC (Bacillus subtilis 168) | MIC (Clostridium perfringens) | MIC [5] | MIC [6] | MIC (Bacillus cereus 2) | MIC [7] | MIC [8] | MIC [9] | Survival days ([10]; dosage 25 mg/kg) | MIC [11] | MIC (Diphtheria bacilli) | MIC (Oral Candida; read-out: MIC values (μM)) | MIC (Oral Candida; [13]) | MIC [12] | Survival days ([10]; dosage 30 mg/kg)
Cc1nn2c([O-])cc(-c3ccc(S(N)(=O)=O)cc3)nc2c1-c1ccc(F)cc1F.[Na+] [Compound 9, Sodium 3-(2,4-difluorophenyl)-2-methyl-5-(4-sulfamoylphenyl)pyrazolo[1,5-α]pyrimidin-7-olate] | < 150 µg/mL | < 100 µg/mL | > 150 µg/mL | < 150 µg/mL | < 100 µg/mL | < 100 µg/mL | > 150 µg/mL | < 100 µg/mL | < 150 µg/mL | < 150 µg/mL | < 100 µg/mL | < 100 µg/mL | < 100 µg/mL | 3.0 days | < 100 µg/mL | > 150 µg/mL | < 100 µg/mL | < 100 µg/mL | > 150 µg/mL | 
Cc1nn2c([O-])cc(-c3ccc(Oc4ccccc4)cc3)nc2c1-c1ccc(F)cc1F.[Na+] [Compound 10, Sodium 3-(2,4-difluorophenyl)-2-methyl-5-(4-phenoxyphenyl)pyrazolo[1,5-α]pyrimidin-7-olate] | < 150 µg/mL | < 100 µg/mL | < 150 µg/mL | < 150 µg/mL | < 100 µg/mL | < 100 µg/mL | > 150 µg/mL | < 100 µg/mL | < 150 µg/mL | < 100 µg/mL | < 150 µg/mL | < 100 µg/mL | < 100 µg/mL | 3.5 days | < 150 µg/mL | > 150 µg/mL |  | < 150 µg/mL | > 150 µg/mL | 
Cc1nn2c([O-])cc(-c3ccc(Oc4ccccc4)nc3)nc2c1-c1ccc(F)cc1F.[Na+] [Compound 30, Sodium 3-(2,4-difluorophenyl)-2-methyl-5-(6-phenoxypyridin-3-yl)pyrazolo[1,5-α]pyrimidin-7-olate] | > 150 µg/mL | > 150 µg/mL | < 150 µg/mL | > 150 µg/mL | < 150 µg/mL | > 150 µg/mL | > 150 µg/mL | < 150 µg/mL | < 150 µg/mL | < 150 µg/mL | < 100 µg/mL | < 100 µg/mL | > 150 µg/mL |  | < 100 µg/mL | > 150 µg/mL | < 100 µg/mL | < 100 µg/mL | > 150 µg/mL | 2.4 days
